Literature values, collected in patent US10544066B2, “Microencapsulated nitrification inhibitor compositions” (DOW AGROSCIENCES LLC, priority 2014, dated 2020).

Details: at 23° Celsius

SMILES: Clc1cccc(C(Cl)(Cl)Cl)n1 [nitrapyrin, 2-chloro-6-(trichloromethyl)pyridine]
- vapor pressure: 2.8×10^−3 mm Hg
